Measurements as given in ChEMBL document CHEMBL4321872, “Engineering a Potent, Long-Acting, and Periphery-Restricted Oxytocin Receptor Agonist with Anorexigenic and Body Weight Reducing Effects” (J Med Chem, 2020).
Active and inactive are the calls of the source. No cut-off for these calls is given here. Numbered stars: 1 amine (or outer) side, 2 acyl side, 3 side chain; on linkers, the order of the positions; unused ones are H or OH. Bridge positions count the residues as written; N and C are the ends. Square brackets hold non-standard residues; d marks the D form. Side chains are listed from the residue outwards. Peptide text beside a SMILES is read from it. * marks the point of attachment. X1 = O=C(O)CCCCCCCCCCCCCCCCC(=O)N[C@@H](CCCCNC(=O)CCOCCOCCNC(=O)CCOCCOCCNC(=O)C*)C(=O)O; PEG8 = NCCOCCOCCOCCOCCOCCOCCOCCOCCC(=O)O; X3 = CCCCCCCCCCCCCC(=O)NCCOCCOCCNC(=O)C*; Palmitoyl = CCCCCCCCCCCCCCCC(=O)*; X2 = O=C(CCC[*:2])[*:1]; Sar = CNCC(=O)O; Cam = NC(=O)C*

Experiments:
[1] = Half life in C57BL/6J mouse at 20 mg/kg, sc by LC-MS/MS analysis; assay type: ADME, organism-based; details: in vivo
Oxytocin receptor [2] = biological target: T1, Oxytocin receptor (Homo sapiens, UniProt P30559); experiment: Agonist activity at recombinant human Gi/Go-coupled OTR expressed in CHOK1 cells assessed as induction of beta-arrestin recruitment measured after 90 mins in presence of 10% FBS by pathhunter assay; assay type: cell-based
T1 sequence (P30559 whole entry): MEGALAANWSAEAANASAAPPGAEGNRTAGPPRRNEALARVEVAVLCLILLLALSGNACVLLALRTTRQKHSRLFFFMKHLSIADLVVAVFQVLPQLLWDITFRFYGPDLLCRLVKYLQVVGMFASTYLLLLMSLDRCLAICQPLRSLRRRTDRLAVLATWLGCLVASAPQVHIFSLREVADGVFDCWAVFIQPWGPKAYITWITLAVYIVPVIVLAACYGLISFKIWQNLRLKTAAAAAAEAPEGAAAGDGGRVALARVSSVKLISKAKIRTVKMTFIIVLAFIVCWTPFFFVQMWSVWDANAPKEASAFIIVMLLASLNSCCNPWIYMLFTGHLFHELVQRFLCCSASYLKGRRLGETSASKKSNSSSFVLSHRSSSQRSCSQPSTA

[3] = biological target: T2, Oxytocin receptor (Homo sapiens) (UniProt P30559); experiment: Agonist activity at recombinant human Gi/Go-coupled OTR expressed in CHOK1 cells assessed as induction of beta-arrestin recruitment measured after 90 mins in presence of 10% FBS by pathhunter assay relative to oxytocin; assay type: cell-based
T2 sequence (whole entry): T1 sequence (P30559 whole entry)

Oxytocin receptor [4] = biological target: T1, Oxytocin receptor; experiment: Agonist activity at recombinant human Gi/Go-coupled OTR expressed in CHOK1 cells assessed as induction of beta-arrestin recruitment measured after 90 mins in absence of 10% FBS by pathhunter assay; assay type: cell-based
[5] = biological target: T2, Oxytocin receptor (Homo sapiens); experiment: Agonist activity at recombinant human Gi/Go-coupled OTR expressed in CHOK1 cells assessed as induction of beta-arrestin recruitment measured after 90 mins in absence of 10% FBS by pathhunter assay relative to oxytocin; assay type: cell-based
[6] = biological target: T2, Oxytocin receptor (Homo sapiens); experiment: Ratio of EC50 for agonist activity at recombinant human Gi/Go-coupled OTR expressed in CHOK1 cells in presence of 10% FBS to EC50 for agonist activity at recombinant human Gi/Go-coupled OTR expressed in CHOK1 cells in absence of 10% FBS; assay type: cell-based
[7] = Aqueous solubility of the compound; assay type: physicochemical; details: buffer
Vasopressin V2 receptor = Vasopressin V2 receptor (Homo sapiens, UniProt P30518); experiment: Agonist activity at recombinant human V2 receptor expressed in CHOK1 cells assessed as increase in cAMP level measured after 30 mins by HTRF assay; assay type: cell-based
[8] = Tmax in C57BL/6 mouse plasma at 1 mg/kg, sc by LC-MS analysis; assay type: ADME, organism-based
[9] = Terminal half life in C57BL/6 mouse plasma at 1 mg/kg, sc by LC-MS analysis; assay type: ADME, organism-based; details: read-out: beta t1/2 (converted)
[10] = Cmax in C57BL/6 mouse plasma at 1 mg/kg, sc by LC-MS analysis; assay type: ADME, organism-based; set-up: dose 1 mg/kg, route subcutaneous
[11] = AUC (0 to last) in C57BL/6 mouse plasma at 1 mg/kg, sc by LC-MS analysis; assay type: ADME, organism-based; set-up: dose 1 mg/kg, time 0 - last, route subcutaneous
[12] = Drug level in C57BL/6 mouse at 1 mg/kg, sc measured after 24 hrs by LC-MS analysis; assay type: ADME, organism-based; details: in vivo, read-out: Drug uptake
[13] = Ratio of drug level in brain to plasma in C57BL/6 mouse at 1 mg/kg, sc measured after 7 hrs by LC-MS analysis; assay type: ADME, organism-based; details: read-out: BPR
Mus musculus [14] = experiment: Anorexigenic activity in C57BL/6J mouse assessed as reduction in food intake at 0.1 mg/kg, sc measured at 3 hrs interval for 24 hrs; assay type: functional, organism-based
Mus musculus [15] = experiment: Anorexigenic activity in C57BL/6J mouse assessed as reduction in body weight at 0.1 mg/kg, sc measured daily for 2 days; assay type: functional, organism-based
Mus musculus [16] = experiment: Anorexigenic activity in sc dosed C57BL/6J mouse […] model assessed as reduction in food intake administered once daily for 9 days and measured daily during compound dosing; assay type: functional, organism-based
Mus musculus [17] = experiment: Anorexigenic activity in sc dosed C57BL/6J mouse […] model assessed as reduction in body weight administered once daily for 9 days and measured daily during compound dosing; assay type: functional, organism-based

Sequence of Vasopressin V2 receptor (P30518 whole entry): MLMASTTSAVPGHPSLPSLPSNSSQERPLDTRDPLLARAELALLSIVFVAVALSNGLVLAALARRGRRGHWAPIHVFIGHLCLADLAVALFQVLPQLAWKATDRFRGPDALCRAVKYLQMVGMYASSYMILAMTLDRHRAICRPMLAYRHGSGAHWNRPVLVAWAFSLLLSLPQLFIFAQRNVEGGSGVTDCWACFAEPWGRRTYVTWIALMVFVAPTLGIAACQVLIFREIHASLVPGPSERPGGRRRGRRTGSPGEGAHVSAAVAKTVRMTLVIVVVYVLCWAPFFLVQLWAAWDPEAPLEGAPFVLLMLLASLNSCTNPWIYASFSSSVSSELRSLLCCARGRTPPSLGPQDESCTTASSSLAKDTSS

CCCCCCCCCCCCCCCC(=O)NCCOCCOCCOCCOCCOCCOCCOCCOCCC(=O)NCCCC[C@H](NC(=O)CNC(=O)[C@@H]1CSSC[C@H](N)C(=O)N[C@@H](Cc2ccc(O)cc2)C(=O)N[C@@H]([C@@H](C)CC)C(=O)N[C@@H](CCC(N)=O)C(=O)N[C@@H](CC(N)=O)C(=O)N1)C(=O)NCC(N)=O (H-CYIQNCGK([PEG8-Palmitoyl])G-NH2; disulfide 1-6)
half-life [1]: 20 h

CC(C)C[C@H](NC(=O)[C@@H]1CCCN1C(=O)[C@@H]1CSCCCC(=O)N[C@@H](Cc2ccc(O)cc2)C(=O)N[C@@H](CSCC(N)=O)C(=O)N[C@@H](CCC(N)=O)C(=O)N[C@@H](CC(N)=O)C(=O)N1)C(=O)NCC(N)=O (YC(Cam)QNCPLG-NH2; linker N-5 via X2)
EC50 (Oxytocin receptor [2]): > 1 µM | %max [3]: 2%

CCCCCCCCCCCCCC(=O)NCCOCCOCCNC(=O)CSC[C@@H]1NC(=O)[C@H](Cc2ccc(O)cc2)NC(=O)CCCSC[C@@H](C(=O)N2CCC[C@H]2C(=O)N[C@@H](CC(C)C)C(=O)NCC(N)=O)NC(=O)[C@H](CC(N)=O)NC(=O)[C@H](CCC(N)=O)NC1=O (YC(X3)QNCPLG-NH2; linker N-5 via X2)
EC50 (Oxytocin receptor [2]): > 1 µM | %max [3]: 2.3%

CC[C@H](C)[C@@H]1NC(=O)[C@H](Cc2ccc(O)cc2)NC(=O)CCCSC[C@@H](C(=O)N2CCC[C@H]2C(=O)N[C@@H](CC(C)C)C(=O)NCC(N)=O)NC(=O)[C@H](CC(N)=O)NC(=O)[C@H](CSCC(N)=O)NC1=O (YIC(Cam)NCPLG-NH2; linker N-5 via X2)
EC50 (Oxytocin receptor [2]): 0.0144 µM | %max [3]: 47%

CCCCCCCCCCCCCC(=O)NCCOCCOCCNC(=O)CSC[C@@H]1NC(=O)[C@H]([C@@H](C)CC)NC(=O)[C@H](Cc2ccc(O)cc2)NC(=O)CCCSC[C@@H](C(=O)N2CCC[C@H]2C(=O)N[C@@H](CC(C)C)C(=O)NCC(N)=O)NC(=O)[C@H](CC(N)=O)NC1=O (YIC(X3)NCPLG-NH2; linker N-5 via X2)
EC50 (Oxytocin receptor [2]): > 1 µM | %max [3]: 5.8%

CC[C@H](C)[C@@H]1NC(=O)[C@H](Cc2ccc(O)cc2)NC(=O)CCCSC[C@@H](C(=O)NCC(=O)N[C@@H](CSCC(=O)NCCOCCOCCC(=O)NCCOCCOCCC(=O)NCCCC[C@H](NC(=O)CCCCCCCCCCCCCCCCC(=O)O)C(=O)O)C(=O)NCC(N)=O)NC(=O)[C@H](CC(N)=O)NC(=O)[C@H](CCC(N)=O)NC1=O (YIQNCGC(X1)G-NH2; linker N-5 via X2)
EC50 (Oxytocin receptor [2]): 0.193 µM | EC50 (Oxytocin receptor [4]): 0.00258 µM | %max [5]: 125% | Ratio EC50 [6]: 74.7 | solubility [7]: Soluble | EC50 (Vasopressin V2 receptor): 1.8 µM | Tmax [8]: 7 h | half-life [9]: 24.2 h | Cmax [10]: 9110 ng/mL | AUC(0-t) [11]: 350 µg·h/mL | concentration at 24 h [12]: > 850 nM | Kp at 7 h [13]: 0.005 | Activity (Mus musculus [14]): Active | Activity (Mus musculus [15]): Active | Activity (Mus musculus [16]): Dose-dependent effect | Activity (Mus musculus [17]): Dose-dependent effect

CC[C@H](C)[C@@H]1NC(=O)[C@H](Cc2ccc(O)cc2)NC(=O)CCCSC[C@@H](C(=O)NCC(=O)N[C@@H](CSCC(=O)NCCOCCOCCC(=O)NCCOCCOCCC(=O)NCCCC[C@H](NC(=O)CCCCCCCCCCCCCCCCC(=O)O)C(=O)O)C(=O)N(C)CC(N)=O)NC(=O)[C@H](CC(N)=O)NC(=O)[C@H](CCC(N)=O)NC1=O (YIQNCGC(X1)[Sar]-NH2; linker N-5 via X2)
EC50 (Oxytocin receptor [2]): 0.464 µM | EC50 (Oxytocin receptor [4]): 0.0655 µM | %max [5]: 50% | Ratio EC50 [6]: 7.08
